Measurements from patent US20220235064A1 (WELLMARKER BIO CO., LTD., priority 2019, published 2022).

What follows are compounds tested against T1, RON tyrosine kinase (Homo sapiens, UniProt Q04912) (assay: Enzyme inhibitory activity against RON tyrosine kinase (TR-FRET)). Settings: RON (Carna Bioscience).
T1 construct: purchased Carna Bioscience
Format: biochemical
Protocol: Experimental Example 1: Measurement of Enzyme Inhibitory Activity Against RON Tyrosine Kinase
To measure enzyme inhibitory activity of the example compounds against RON, IC50 values of the compounds were measured using fluorescence resonance energy transfer (FRET).
Specifically, first, RON (Carna Bioscience) was diluted in a kinase assay buffer (50 mM HEPES pH 7.5, 1 mM EGTA, 10 mM MgCl2, 2 mM DTT, and 0.01% Tween-20) to be at a concentration (0.4 nM) that is twice the final reaction concentration. The dilute was added to a 384-well-plate at 5 μl per well. Each of the example compounds was prepared at a concentration of 1 mM in 100% DMSO and diluted 8 times in a stepwise manner through 10-fold dilution. Each compound was diluted in a kinase assay buffer to be at a concentration that is 4 times the final reaction concentration. The dilute was added to a 384-well-plate at 2.5 μl per well, and incubation was performed at room temperature for 15 minutes.
Thereafter, an ATP solution (Sigma Aldrich) prepared at a concentration of 0.25 M was diluted in a kinase assay buffer to be at a concentration (60 μM) that is 4 times the final reaction concentration. Dilution of a tyrosine peptide substrate (Perkin-Elmer) was performed therein to be at a concentration (400 nM) that is 4 times the final reaction concentration. The dilute was added to a 384-well-plate at 2.5 µl per well. Reaction was allowed to proceed for 60 minutes by incubating the 384-well-plate at room temperature. Thereafter, EDTA (Sigma Aldrich) was diluted in a TR-FRET detection buffer (Perkin-Elmer) to be at a concentration (20 mM) that is twice the final reaction concentration. Dilution of a Europium-containing phosphotyrosine antibody (Perkin-Elmer) was performed in the diluted EDTA solution to be at a concentration (4 nM) that is twice the final reaction concentration, so that a stop solution for RON reaction was prepared.
The stop solution was added to the 384-well-plate at 10 μl per well to quench the reaction, and incubation was performed at room temperature for 60 minutes. Then, the 384-well-plate was read on a Victor X5 (Perkin-Elmer) plate reader. Here, the excitation wavelength was 340 nm, and the emission wavelengths were 620 nm and 665 nm. An IC50 value of the compound was derived using GraphPad Prism 5 program, in which the IC50 was derived by expressing emission energy at the wavelength of 665 nm as a function of the compound concentration.

T1 sequence (Q04912 25-1400): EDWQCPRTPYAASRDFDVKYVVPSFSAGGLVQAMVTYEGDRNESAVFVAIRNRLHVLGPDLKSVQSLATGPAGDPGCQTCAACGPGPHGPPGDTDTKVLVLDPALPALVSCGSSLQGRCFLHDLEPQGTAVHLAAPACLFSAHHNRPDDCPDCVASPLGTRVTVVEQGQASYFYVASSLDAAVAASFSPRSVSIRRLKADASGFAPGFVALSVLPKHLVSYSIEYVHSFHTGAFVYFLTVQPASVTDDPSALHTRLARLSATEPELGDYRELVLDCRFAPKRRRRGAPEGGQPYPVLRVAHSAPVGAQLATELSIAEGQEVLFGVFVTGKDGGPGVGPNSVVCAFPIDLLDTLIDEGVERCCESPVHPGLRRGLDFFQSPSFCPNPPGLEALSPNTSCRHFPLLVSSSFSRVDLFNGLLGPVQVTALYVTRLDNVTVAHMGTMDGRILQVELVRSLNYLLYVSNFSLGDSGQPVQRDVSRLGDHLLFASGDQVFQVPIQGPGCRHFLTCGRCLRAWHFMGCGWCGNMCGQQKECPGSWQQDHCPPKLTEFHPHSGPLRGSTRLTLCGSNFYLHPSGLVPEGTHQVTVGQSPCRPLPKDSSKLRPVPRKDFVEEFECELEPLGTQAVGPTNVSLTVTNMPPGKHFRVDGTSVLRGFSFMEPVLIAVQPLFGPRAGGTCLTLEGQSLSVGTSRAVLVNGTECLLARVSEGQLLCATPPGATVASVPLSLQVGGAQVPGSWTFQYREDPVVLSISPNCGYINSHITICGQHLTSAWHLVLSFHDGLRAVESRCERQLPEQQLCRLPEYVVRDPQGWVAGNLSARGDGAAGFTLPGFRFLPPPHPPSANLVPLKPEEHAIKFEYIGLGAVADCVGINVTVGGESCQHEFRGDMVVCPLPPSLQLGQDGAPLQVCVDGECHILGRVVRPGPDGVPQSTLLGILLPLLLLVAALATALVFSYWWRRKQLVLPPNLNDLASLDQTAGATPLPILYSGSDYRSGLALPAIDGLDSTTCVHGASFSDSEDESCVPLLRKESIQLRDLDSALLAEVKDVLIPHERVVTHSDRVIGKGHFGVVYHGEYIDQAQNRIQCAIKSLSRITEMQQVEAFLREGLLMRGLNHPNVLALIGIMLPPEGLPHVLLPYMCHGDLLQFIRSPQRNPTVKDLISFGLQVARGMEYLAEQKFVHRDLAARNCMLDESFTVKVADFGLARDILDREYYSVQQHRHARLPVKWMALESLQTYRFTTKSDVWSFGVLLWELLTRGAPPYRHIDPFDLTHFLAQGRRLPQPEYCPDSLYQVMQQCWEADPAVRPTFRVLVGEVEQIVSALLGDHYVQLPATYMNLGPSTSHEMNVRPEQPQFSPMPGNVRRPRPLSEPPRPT

Compound | IC50 [nM]
O=C(Nc1ccc(Oc2ccnc3cc(-c4ccc(CN5CCOCC5)cn4)sc23)c(F)c1)c1c2c(cn(-c3ccc(F)cc3)c1=O)CCC2 [Example 7] | 34.9
COc1cc2nccc(Oc3ccc(NC(=O)c4c5c(cn(-c6ccc(C(F)(F)F)cc6)c4=O)CCO5)cc3F)c2cc1OC [Example 42, N-(4-((6,7-Dimethoxyquinolin-4-yl)oxy)-3-fluorophenyl)-6-oxo-5-(4-(trifluoromethyl)phenyl)-2,3,5,6-tetrahydrofuro[3,2-c]pyridine-7-carboxamide] | 30
NC(=O)c1nccc(Oc2ccc(NC(=O)c3c4c(cn(-c5ccc(F)cc5)c3=O)CCO4)cc2F)c1Cl [Example 54, N-(4-((2-Carbamoyl-3-chloropyridin-4-yl)oxy)-3-fluorophenyl)-5-(4-fluorophenyl)-6-oxo-2,3,5,6-tetrahydrofuro[3,2-c]pyridine-7-carboxamide] | > 1000
Nc1nccc(Oc2ccc(NC(=O)c3c4c(cn(-c5ccc(F)cc5)c3=O)CCO4)cc2F)n1 [Example 57, N-(4-((2-Aminopyrimidin-4-yl)oxy)-3-fluorophenyl)-5-(4-fluorophenyl)-6-oxo-2,3,5,6-tetrahydrofuro[3,2-c]pyridine-7-carboxamide] | 18.2
Nc1cc(Oc2ccc(NC(=O)c3c4c(cn(-c5ccc(F)cc5)c3=O)CCO4)cc2F)ncn1 [Example 58, N-(4-((6-Aminopyrimidin-4-yl)oxy)-3-fluorophenyl)-5-(4-fluorophenyl)-6-oxo-2,3,5,6-tetrahydrofuro[3,2-c]pyridine-7-carboxamide] | 25
O=C(Nc1ccc(Oc2ccnc(NC3CCOCC3)c2)c(F)c1)c1c2c(cn(-c3ccc(F)cc3)c1=O)CCO2 [Example 60, N-(3-Fluoro-4-((2-((tetrahydro-2H-pyran-4-yl)amino)pyridin-4-yl)oxy)phenyl)-5-(4-fluorophenyl)-6-oxo-2,3,5,6-tetrahydrofuro[3,2-c]pyridine-7-carboxamide] | 13.1
CN1CCC(Nc2cc(Oc3ccc(NC(=O)c4c5c(cn(-c6ccc(F)cc6)c4=O)CCO5)cc3F)ncn2)CC1 [Example 61, N-(3-Fluoro-4-((6-((1-methylpiperidin-4-yl)amino)pyrimidin-4-yl)oxy)phenyl)-5-(4-fluorophenyl)-6-oxo-2,3,5,6-tetrahydrofuro[3,2-c]pyridine-7-carboxamide] | 156
Cc1nc2c(Oc3ccc(NC(=O)c4c5c(cn(-c6ccc(F)cc6)c4=O)CCO5)cc3F)ccnc2[nH]1 [Example 67, N-(3-Fluoro-4-((2-methyl-3H-imidazo[4,5-b]pyridin-7-yl)oxy)phenyl)-5-(4-fluorophenyl)-6-oxo-2,3,5,6-tetrahydrofuro[3,2-c]pyridine-7-carboxamide] | 15
O=C(Nc1ccc(Oc2ncnc3[nH]cnc23)c(F)c1)c1c2c(cn(-c3ccc(F)cc3)c1=O)CCO2 [Example 72, N-(4-((9H-purin-6-yl)oxy)-3-fluorophenyl)-5-(4-fluorophenyl)-6-oxo-2,3,5,6-tetrahydrofuro[3,2-c]pyridine-7-carboxamide] | 46.2
O=C(Nc1ccc(Oc2ccnc3ccnn23)c(F)c1)c1c2c(cn(-c3ccc(F)cc3)c1=O)CCO2 [Example 75, N-(3-Fluoro-4-(pyrazolo[1,5-a]pyrimidin-7-yloxy)phenyl)-5-(4-fluorophenyl)-6-oxo-2,3,5,6-tetrahydro[3,2-c]pyridine-7-carboxamide] | 2800
O=C(Nc1ccc(Oc2ccnc3cc(OCCN4CCOCC4)c(C(F)(F)F)cc23)c(F)c1)c1c2c(cn(-c3ccc(F)cc3)c1=O)CCO2 [Example 169, N-(3-Fluoro-4-((7-(2-morpholinoethoxy)-6-(trifluoromethyl)quinolin-4-yl)oxy)phenyl)-5-(4-fluorophenyl)-6-oxo-2,3,5,6-tetrahydrofuro[3,2-c]pyridine-7-carboxamide] | > 100
O=C(Nc1ccc(Oc2ccnc3cc(OCCCN4CCOCC4)c(C(F)(F)F)cc23)c(F)c1)c1c2c(cn(-c3ccc(F)cc3)c1=O)CCO2 [Example 170, N-(3-Fluoro-4-((7-(3-morpholinopropoxy)-6-(trifluoromethyl)quinolin-4-yl)oxy)phenyl)-5-(4-fluorophenyl)-6-oxo-2,3,5,6-tetrahydrofuro[3,2-c]pyridine-7-carboxamide] | > 100

These reach a lower IC50. Values come first.

IC50 [nM] | Compound
11.9 | O=C(Nc1ccc(Oc2ccnc3cc(OCCCN4CCOCC4)ccc23)c(F)c1)c1c2c(cn(-c3ccc(F)cc3)c1=O)CCC2 [Example 159, N-(3-Fluoro-4-((7-(3-morpholinopropoxy)quinolin-4-yl)oxy)phenyl)-2-(4-fluorophenyl)-3-oxo-3,5,6,7-tetrahydro-2H-cyclopenta[c]pyridine-4-carboxamide]
11.9 | Nc1cc(Oc2ccc(NC(=O)c3c4c(cn(-c5ccc(F)cc5)c3=O)CCO4)cc2F)ccn1 [Example 56, N-(4-((2-Aminopyridin-4-yl)oxy)-3-fluorophenyl)-5-(4-fluorophenyl)-6-oxo-2,3,5,6-tetrahydrofuro[3,2-c]pyridine-7-carboxamide]
9.75 | O=C(Nc1ccc(Oc2ncnc3c2CCN3)c(F)c1)c1c2c(cn(-c3ccc(F)cc3)c1=O)CCO2 [Example 74, N-(4-((6,7-Dihydro-5H-pyrrolo[2,3-d]pyrimidin-4-yl)oxy)-3-fluorophenyl)-5-(4-fluorophenyl)-6-oxo-2,3,5,6-tetrahydrofuro[3,2-c]pyridine-7-carboxamide]
8.63 | O=C(Nc1ccc(Oc2ccnc3[nH]cnc23)c(F)c1)c1c2c(cn(-c3ccc(F)cc3)c1=O)CCO2 [Example 66, N-(4-((3H-imidazo[4,5-b]pyridin-7-yl)oxy)-3-fluorophenyl)-5-(4-fluorophenyl)-6-oxo-2,3,5,6-tetrahydrofuro[3,2-c]pyridine-7-carboxamide]
5.13 | COc1cc2nccc(Oc3ccc(NC(=O)c4c5c(cn(-c6cccc(F)c6)c4=O)CCO5)cc3F)c2cc1OC [Example 43, N-(4-((6,7-Dimethoxyquinolin-4-yl)oxy)-3-fluorophenyl)-6-oxo-5-(3-fluorophenyl)-2,3,5,6-tetrahydrofuro[3,2-c]pyridine-7-carboxamide]
3.66 | Cc1cc2c(Oc3ccc(NC(=O)c4c5c(cn(-c6ccc(F)cc6)c4=O)CCO5)cc3F)ccnc2[nH]1 [Example 70, N-(3-Fluoro-4-((2-methyl-1H-pyrrolo[2,3-b]pyridin-4-yl)oxy)-3-fluorophenyl)-5-(4-fluorophenyl)-6-oxo-2,3,5,6-tetrahydrofuro[3,2-c]pyridine-7-carboxamide]
3.29 | O=C(Nc1ccc(Oc2ccnc3ccoc23)c(F)c1)c1c2c(cn(-c3ccc(F)cc3)c1=O)CCO2 [Example 69, N-(3-Fluoro-4-((furo[3,2-b]pyridin-7-yl)oxy)phenyl)-5-(4-fluorophenyl)-6-oxo-2,3,5,6-tetrahydrofuro[3,2-c]pyridine-7-carboxamide]
2.24 | Nc1nccc(Oc2ccc(NC(=O)c3c4c(cn(-c5ccc(F)cc5)c3=O)CCO4)cc2F)c1Cl [Example 55, N-(4-((2-Amino-3-chloropyridin-4-yl)oxy)-3-fluorophenyl)-5-(4-fluorophenyl)-6-oxo-2,3,5,6-tetrahydrofuro[3,2-c]pyridine-7-carboxamide]
2.24 | O=C(Nc1ccc(Oc2cc(NC3CCOCC3)ncn2)c(F)c1)c1c2c(cn(-c3ccc(F)cc3)c1=O)CCO2 [Example 59]
1.72 | O=C(Nc1ccc(Oc2ccnc3[nH]ccc23)c(F)c1)c1c2c(cn(-c3ccc(F)cc3)c1=O)CCO2 [Example 65, N-(4-((1H-pyrrolo[2,3-b]pyridin-4-yl)oxy)-3-fluorophenyl)-5-(4-fluorophenyl)-6-oxo-2,3,5,6-tetrahydrofuro[3,2-c]pyridine-7-carboxamide]
1.57 | O=C(Nc1ccc(Oc2ccnc3[nH]ncc23)c(F)c1)c1c2c(cn(-c3ccc(F)cc3)c1=O)CCO2 [Example 68, N-(4-((1H-pyrazolo[3,4-b]pyridin-4-yl)oxy)-3-fluorophenyl)-5-(4-fluorophenyl)-6-oxo-2,3,5,6-tetrahydrofuro[3,2-c]pyridine-7-carboxamide]
1.32 | O=C(Nc1ccc(Oc2ccnc3cc(OCCN4CCOCC4)ccc23)c(F)c1)c1c2c(cn(-c3ccc(F)cc3)c1=O)CCO2 [Example 157, N-(3-Fluoro-4-((7-(2-morpholinylethoxy)quinolin-4-yl)oxy)phenyl)-5-(4-fluorophenyl)-6-oxo-2,3,5,6-tetrahydrofuro[3,2-c]pyridine-7-carboxamide]
